Experimental data as given in patent US8148392B2, “2-indolyl imidazo [4,5-d] phenanthroline derivatives and their use in the treatment of cancer” (Lorus Therapeutics Inc., priority 2005, dated 2012).
“Also recorded” adds a separate entry of the source.

Tests used:
[1] = test system: intracellular zinc ions in HT-29 cells; assay: Chelation of intracellular zinc in HT-29 cells, Zinquin fluorescence; format: cell-based, human; conditions: HT-29 with or without pre-loading with 35 μM ZnCl2, 30 min
Protocol: To determine the chelation property of compound 3 with intracellular zinc ions, HT-29 cells, with or without pre-loaded with 35 μM ZnCl2 were treated with compound 3, a known zinc chelator TPEN or vehicle control (DMSO), and intracellular free zinc was determined by measuring Zinquin fluorescence as described in the preceding Example (FIG. 37). HT-29 cells (4×10^5 cells/group) were pre-treated with 35 μM ZnCl2 for 20 min, followed by addition of indicated concentrations of compound 3 or TPEN and 10 μM Zinquin for 30 min at 37° C., and the fluorescence count was measured (FIG. 37A). For measurement of chelation of endogenous zinc ions in HT-29 cells, HT-29 cells (1.5×10^6 cells/group) were treated with indicated concentrations of compound 3 and 10 μM Zinquin for 30 min at 37° C., and the fluorescence count was measured (FIG. 37B).

[2] = test system: human colon adenocarcinoma cells HT-29; assay: Colon carcinoma HT-29 xenograft model, tumour growth; format: in vivo, CD-1 female nude mice
Protocol: The ability of compound 3 to inhibit colon tumour growth in vivo was tested as follows. CD-1 female nude mice (7 mice per treatment group, 6-7 weeks) were injected intraperitoneally with human colon adenocarcinoma cells HT-29 cells (3×10^6 cells in 0.1 ml PBS). Treatment of the mice with vehicle or 50 mg/kg/d of compound 3 was initiated 5 days post-inoculation (size of tumours=20-40 mm^3) for 7-day cycles of five days followed by a 2 day break for 5 weeks. The size of the tumours was measured over the course of the experiment using calipers, and the weight of the tumours was measured after the animals were sacrificed.
The ability of compounds 3, 5, and 7 to inhibit colon carcinoma cell growth in vivo was tested in the mouse xenograft model as described in Example 26. […]
The tumor regression efficacy of compound 3 was assessed in compound 3-treated HT-29-transplanted athymic mice (FIG. 54A), and correlated with gene expressions of MTF-1, KLF4 and Cyclin D1 in HT-29 xenograft tissues (FIG. 54B). […] The tumor size was measured during the course of treatment using calipers (FIG. 54A). […] The tumor tissues were excised, frozen immediately and stored at −80° C. until RNA extraction and gene expression was analyzed by RT-PCR (FIG. 54B). […]

KLF4 protein = KLF4 protein in HT-29 cells, Western blot; format: cell-based, human; conditions: HT-29, 2.5, 5, 7.5 and 10 μM, 16 hours
Protocol: The ability of compound of Formula I to increase expression of KLF4 protein was determined as follows. HT-29 cells were treated with vehicle control (DMSO), TPEN (4 μM), ZnCl2 (100 μM), or compound 3 (2.5, 5, 7.5 and 10 μM) for 16 hours. Cells were lysed and subjected to Western blot with anti-KLF4 antibodies, or GAPDH antibodies to ensure equal protein loading.

[3] = test system: copper transporter, Ctrl also known as SLC31A1; assay: Copper transporter Ctr1 (SLC31A1) gene expression in HT-29 cells, RT-PCR; format: cell-based, human
Protocol: The effect of compound 3 and compound 7 treatment on the expressions of a zinc-storage protein meallothionein 1A (MT1A) (FIG. 29A), a copper transporter, Ctrl also known as SLC31A1 (FIG. 29B) and an iron transporter; transferrin receptor 1 (TfR1) (FIG. 29C) were measured and compared with a known zinc chelator TPEN, a copper chelator tetramine and an iron chelator DFO, respectively. Despite in vitro chelation of Cu^+2, increase in copper-sensitive gene after compound 3 treatment was transient.

Cyclin E = Cyclin E protein in HT-29 cells, Western blotting; format: cell-based, human; conditions: HT-29, 1 μM
Cyclin D1 protein = Cyclin D1 protein in HT-29 cells, Western blotting; format: cell-based, human; conditions: HT-29, 1 μM
Protocol: Gene and protein expression of Cyclin D1 after treatment with compound 3 was determined by RT-PCR and Western blotting as shown in FIGS. 43A and 43B, respectively, as follows. HT-29 cells were treated with 1 μM compound 3 for indicated time. Total RNA was extracted and gene expression level was determined by RT-PCR. Cyclin D1 protein expression in HT-29 cell lysate was determined by SDS-PAGE followed by Western blotting.
To identify the cell cycle regulatory pathway involved in compound 3-mediated cell cycle arrest as shown in Example 23 and 41, particularly associated with G1/S phase, expression of the key cell cycle regulator of G1/S phase progression, Cyclin D1, was examined.

[4] = test system: MT-1 isolated from rabbit liver; assay: Chelation of zinc from metallothionein MT-1, PAR colorimetric zinc assay; format: biochemical; conditions: 25 μM MT, compound 0.15 to 60 μM, 15 min
From the text: Intracellular zinc exists as a labile pool, loosely bound to storage proteins metallothioneins (MT), which store up to 7 or 8 zinc per molecule. The labile zinc pool donates zinc to enzymes or transcription factors, which require reversible binding with zinc for their full activity (Tapiero and Tew (2003) Biomed Pharmacother 57(9): 399-411). The efficiency of compound 3 to remove zinc from MT was investigated. MT-1 isolated from rabbit liver, containing mainly MT-1a and MT-2e with ˜7 zinc per molecule in ≧95% of MT was purchased from Alexis Biochemicals (Lausen, Switzerland). The content of zinc in MT was measured in vitro using 4-(2-pyridylazo) resorcinol (PAR) colorimetric zinc assay as described in the preceding Examples. The change in absorbance of PAR after PAR-zinc ion complex formation was measured at 500 nm (Dinkova-Kostova et al., (2005) Biochemistry 44(18): 6889-6899). To determine chelation of zinc from MT-1 by compound 3 in vitro, MT-125 μM in […] volume of 0.2M Tris-HCl, pH 7.5 was added to 96-well plate. Compound 3 (0.15 to 60 μM) in 80% acetonitrile/20% DMSO was added to MT-1 for 15 min at room temperature. PAR (200 μM in 0.2M Tris-HCl, pH 7.5) was added and the color development of PAR-zinc complex was measured by a multi-well spectrophotometer at 500 nm as shown in FIG. 47.

Cc1[nH]c2ccccc2c1-c1nc2c3cccnc3c3ncccc3c2[nH]1 [Compound 3]
intracellular free zinc (Zinquin fluorescence) [1]: Dose-dependent decrease in both pre-loaded zinc and endogenous zinc levels
tumour growth (size and weight) ([2]; 50 mg/kg/d, five days on 2 off, 5 weeks): able to inhibit tumour growth
tumor size ([2]; 100 mg/kg i.p., 5 days then 10 days interval, 2 cycles): Significant reduction in tumor size
level of KLF4 protein (KLF4 protein): able to increase the level of KLF4 protein
copper-sensitive gene expression [3]: transient
Cyclin E expression (Cyclin E): decreased expression of Cyclin E
Cyclin D1 protein expression (Cyclin D1 protein): decrease in both gene (FIG. 43A) and protein (FIG. 43B) levels of Cyclin D1; also recorded: Decreased protein expression of Cyclin D1
PAR absorbance of MT (removal of zinc from metallothionein) [4]: Dose-dependent decreases in PAR absorbance
